In ChEMBL document CHEMBL3875223, “Activation of lysine-specific demethylase 1 inhibitor peptide by redox-controlled cleavage of a traceless linker” (Bioorg Med Chem, 2017) one finds Ki data, which are given here for one compound.

In the experiment the target is Lysine-specific histone demethylase 1A (Homo sapiens, UniProt O60341). In words: Inhibition of human LSD1 assessed as reduction in H2O2 production using H3K4me2 (1 to 20 residues) peptide as substrate preincubated for 10 mins followed by substrate addition measured after 30 mins in presence of DTT by peroxidase coupled enzyme assay.

By Ki is commonly meant a measure of affinity in units of concentration, obtained from inhibition or displacement. Consider `CC(C)C[C@H](NC(=O)[C@H](Cc1ccccc1)NC(=O)[C@H](CO)NC(=O)[C@H](CCCNC(=N)N)NC(=O)[C@@H]1CCCN1C(=O)CO)C(=O)N[C@H](C(=O)N[C@@H](CCCNC(=N)N)C(=O)N[C@@H](CCCCN)C(=O)N1CCC[C@H]1C(=O)N[C@@H](CCCCNC(=O)CO)C(N)=O)C(C)C`, for which the Ki was found to be 190 µM.
